These results are taken from BindingDB's records for doi:10.1016/j.chembiol.2015.08.013 (Aston University, 2015).

What all share (assay): TG Activity Assays
Assay [1] addresses T1, Protein-glutamine gamma-glutamyltransferase 2 (Homo sapiens, UniProt P21980).
T1 sequence (P21980 whole entry): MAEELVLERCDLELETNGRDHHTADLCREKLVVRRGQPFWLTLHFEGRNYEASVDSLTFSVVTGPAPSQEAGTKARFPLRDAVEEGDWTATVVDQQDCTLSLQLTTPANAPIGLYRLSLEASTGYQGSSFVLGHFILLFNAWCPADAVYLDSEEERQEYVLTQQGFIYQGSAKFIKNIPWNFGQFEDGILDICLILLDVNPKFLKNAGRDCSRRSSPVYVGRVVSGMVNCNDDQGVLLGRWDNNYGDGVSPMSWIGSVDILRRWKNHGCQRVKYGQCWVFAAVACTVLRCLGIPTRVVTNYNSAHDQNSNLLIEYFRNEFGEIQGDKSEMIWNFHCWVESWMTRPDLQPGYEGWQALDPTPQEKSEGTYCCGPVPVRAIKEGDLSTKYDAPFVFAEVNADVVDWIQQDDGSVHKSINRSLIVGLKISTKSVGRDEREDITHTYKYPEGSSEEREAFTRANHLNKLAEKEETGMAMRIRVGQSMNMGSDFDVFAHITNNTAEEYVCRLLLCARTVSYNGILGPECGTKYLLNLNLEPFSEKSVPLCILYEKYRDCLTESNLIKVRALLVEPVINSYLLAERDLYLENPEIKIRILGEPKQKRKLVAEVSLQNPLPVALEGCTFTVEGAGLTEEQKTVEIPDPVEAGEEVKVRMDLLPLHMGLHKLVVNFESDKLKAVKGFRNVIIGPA
How it is done:
(§1) The incorporated biotinylated peptides were measured using horseradish peroxidase-conjugated streptavidin and then measured using o-phenylenediamine dihydrochloride substrates. The absorbance was measured at 490 nm using a microplat

Assay [2] addresses T2, Protein-glutamine gamma-glutamyltransferase 6 (Homo sapiens, UniProt O95932).
T2 sequence (O95932 whole entry): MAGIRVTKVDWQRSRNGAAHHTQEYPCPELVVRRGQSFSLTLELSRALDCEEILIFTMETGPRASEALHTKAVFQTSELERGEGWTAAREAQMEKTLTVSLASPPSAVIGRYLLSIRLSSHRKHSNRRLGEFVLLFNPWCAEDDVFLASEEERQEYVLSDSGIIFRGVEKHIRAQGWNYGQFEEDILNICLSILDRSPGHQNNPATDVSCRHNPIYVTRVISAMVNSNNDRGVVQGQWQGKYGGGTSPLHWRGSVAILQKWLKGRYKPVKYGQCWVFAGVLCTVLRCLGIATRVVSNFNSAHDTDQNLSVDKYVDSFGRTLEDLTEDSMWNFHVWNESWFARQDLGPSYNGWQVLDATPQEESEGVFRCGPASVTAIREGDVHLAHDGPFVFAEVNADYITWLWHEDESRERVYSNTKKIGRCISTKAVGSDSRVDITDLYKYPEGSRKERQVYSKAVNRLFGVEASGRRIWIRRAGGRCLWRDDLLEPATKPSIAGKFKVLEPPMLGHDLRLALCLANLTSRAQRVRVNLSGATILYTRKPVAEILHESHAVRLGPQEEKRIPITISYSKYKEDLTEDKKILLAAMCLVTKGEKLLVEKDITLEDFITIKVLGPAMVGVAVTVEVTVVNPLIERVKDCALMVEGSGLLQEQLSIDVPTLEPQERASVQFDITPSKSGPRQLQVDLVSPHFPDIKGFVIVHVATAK
Here is the method:
as §1

The target of assay [3] is T3, Protein-glutamine gamma-glutamyltransferase E (Homo sapiens, UniProt Q08188).
T3 sequence (Q08188 whole entry): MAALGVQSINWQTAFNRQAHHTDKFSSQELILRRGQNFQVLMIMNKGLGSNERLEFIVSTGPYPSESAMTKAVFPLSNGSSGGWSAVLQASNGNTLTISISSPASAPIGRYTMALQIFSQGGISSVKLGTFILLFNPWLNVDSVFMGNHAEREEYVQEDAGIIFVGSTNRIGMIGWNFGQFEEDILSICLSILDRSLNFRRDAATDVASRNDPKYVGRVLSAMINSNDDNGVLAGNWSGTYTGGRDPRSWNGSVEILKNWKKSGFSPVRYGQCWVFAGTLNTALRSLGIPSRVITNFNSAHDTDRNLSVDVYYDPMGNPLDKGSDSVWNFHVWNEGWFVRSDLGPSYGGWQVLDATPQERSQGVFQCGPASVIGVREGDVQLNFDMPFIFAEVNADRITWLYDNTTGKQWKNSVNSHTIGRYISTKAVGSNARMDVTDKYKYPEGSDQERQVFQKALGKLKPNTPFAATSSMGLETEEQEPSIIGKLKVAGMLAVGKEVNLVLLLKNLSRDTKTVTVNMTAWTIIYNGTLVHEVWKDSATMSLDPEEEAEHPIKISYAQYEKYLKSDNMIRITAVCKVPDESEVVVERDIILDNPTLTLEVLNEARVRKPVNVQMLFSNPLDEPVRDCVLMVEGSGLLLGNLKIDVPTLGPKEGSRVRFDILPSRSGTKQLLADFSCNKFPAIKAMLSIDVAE
Here is the method:
as §1

Assay [4] deals with T4, Protein-glutamine gamma-glutamyltransferase K (Homo sapiens, UniProt P22735).
T4 sequence (P22735 whole entry): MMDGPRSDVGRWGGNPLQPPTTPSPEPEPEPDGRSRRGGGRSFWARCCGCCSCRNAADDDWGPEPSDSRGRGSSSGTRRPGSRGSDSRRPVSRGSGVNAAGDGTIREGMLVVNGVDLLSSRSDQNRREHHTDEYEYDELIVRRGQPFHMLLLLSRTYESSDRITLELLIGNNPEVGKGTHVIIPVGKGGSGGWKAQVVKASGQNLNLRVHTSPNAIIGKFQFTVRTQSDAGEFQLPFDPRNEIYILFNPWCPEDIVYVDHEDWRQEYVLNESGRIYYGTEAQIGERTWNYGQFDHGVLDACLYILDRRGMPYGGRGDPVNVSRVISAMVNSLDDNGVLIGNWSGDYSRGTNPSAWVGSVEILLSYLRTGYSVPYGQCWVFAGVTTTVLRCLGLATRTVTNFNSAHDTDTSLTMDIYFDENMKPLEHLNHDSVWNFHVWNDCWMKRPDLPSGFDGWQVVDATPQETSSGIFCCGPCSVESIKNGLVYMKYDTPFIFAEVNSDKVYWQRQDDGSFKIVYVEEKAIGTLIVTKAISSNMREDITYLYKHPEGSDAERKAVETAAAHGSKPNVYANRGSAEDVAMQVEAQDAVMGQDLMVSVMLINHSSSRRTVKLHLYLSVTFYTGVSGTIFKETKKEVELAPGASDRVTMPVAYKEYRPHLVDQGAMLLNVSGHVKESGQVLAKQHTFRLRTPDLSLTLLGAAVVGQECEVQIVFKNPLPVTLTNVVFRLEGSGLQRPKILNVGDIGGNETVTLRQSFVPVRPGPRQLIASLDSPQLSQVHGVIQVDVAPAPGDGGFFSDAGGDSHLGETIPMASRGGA
Here is the method:
as §1

A value given as a limit tells only on which side of the number the result lay.

Turning to `C[S+](C)CC(=O)NCC(=O)N1CCN(C(=O)C23CC4CC(CC(C4)C2)C3)CC1` [[2-[[2-[4-(Adamantane-1-carbonyl)piperazin-1-yl]-2-oxo-ethyl]amino]-2-oxo-ethyl]-dimethyl-sulfonium bromide (1e)], the concentration for half-maximal inhibition (IC50) in assay [1] was 0.889 µM; in assay [2] it was > 10 µM; in assay [3], > 100 µM; in assay [4], > 100 µM.

In the case of `CN(C)c1cccc2c(S(=O)(=O)N3CCN(C(=O)CNC(=O)C[S+](C)C)CC3)cccc12` [[2-[[2-[4-[[5-(Dimethylamino)-1-naphthyl]sulfonyl]piperazin-1-yl]-2-oxo-ethyl]amino]-2-oxo-ethyl]-dimethyl-sulfonium bromide (1h)], the half-inhibitory concentration (IC50) in assay [2] is > 10 µM; in assay [3] it was > 100 µM; in assay [4] it was > 100 µM.

Turning to `C=CC(=O)NCC(=O)N1CCN(C(=O)C23CC4CC(CC(C4)C2)C3)CC1` [N-[2-[4-(adamantane-1-carbonyl)piperazin-1-yl]-2-oxo-ethyl]prop-2-enamide (3e)], the 50% inhibitory concentration (IC50) in assay [1] amounted to 0.125 µM; in assay [2], 2 µM; in assay [3], 11 µM; in assay [4], 2.2 µM.

In the case of `C=CC(=O)NCC(=O)N1CCN(C(=O)OCC23CC4CC(CC(C4)C2)C3)CC1` [1-Adamantylmethyl 4-[2-(prop-2-enoylamino)acetyl]piperazine-1-carboxylate (3f)], the half-inhibitory concentration (IC50) in assay [2] was > 10 µM; in assay [3], > 100 µM; in assay [4] it was > 100 µM.

Consider `C[S+](C)CC(=O)NCC(=O)N1CCN(C(=O)OCC23CC4CC(CC(C4)C2)C3)CC1` [[2-[[2-[4-(1-Adamantylmethoxycarbonyl)piperazin-1-yl]-2-oxo-ethyl]amino]-2-oxoethyl]-dimethyl-sulfonium bromide (1f)], for which the IC50 in assay [1] was 0.775 µM; in assay [2], > 10 µM; in assay [3], > 100 µM; in assay [4], > 100 µM.

Broadly, the IC50 is the midpoint of a concentration-inhibition curve. Lower therefore signals higher potency.
